What was measured:
Aβ42 = experiment: Screening for γ-secretase-modulating activity, Method 2: Aβ42 Alphalisa in supernatant of SKNBE2 cells carrying APP 695 wild type (Table 12c); format: cell-based; conditions: Method 2, Table 12c, incubated overnight
Procedure: (§1) Screening was carried out using SKNBE2 cells carrying the APP 695—wild type, grown in Dulbecco's Modified Eagle's Medium/Nutrient mixture F-12 (DMEM/NUT-mix F-12) (HAM) provided by Invitrogen (cat no. 10371-029) containing 5% Serum/Fe supplemented with 1% non-essential amino acids, 1-glutamine 2 mM, Hepes 15 mM, penicillin 50 U/ml (units/ml) en streptomycin 50 μg/ml. Cells were grown to near confluency.
(§2) The screening was performed using a modification of the assay as described in Citron et al (1997) Nature Medicine 3: 67. Briefly, cells were plated in a 384-well plate at 10^4 cells/well in Ultraculture (Lonza, BE12-725F) supplemented with 1% glutamine (Invitrogen, 25030-024), 1% non-essential amino acid (NEAA), penicillin 50 U/ml en streptomycin 50 μg/ml in the presence of test compound at different test concentrations. The cell/compound mixture was incubated overnight at 37° C., 5% CO2, The next day the media were assayed by two sandwich immuno-assays, for Aβ42 and Aβtotal.
(§3) Aβtotal and Aβ42 concentrations were quantified in the cell supernatant using the Aphalisa technology (Perkin Elmer). Alphalisa is a sandwich assay using biotinylated antibody attached to streptavidin coated donorbeads and antibody conjugated to acceptor beads. In the presence of antigen, the beads come into close proximity. The excitation of the donor beads provokes the release of singlet oxygen molecules that trigger a cascade of energy transfer in the acceptor beads, resulting in light emission. To quantify the amount of Aβ42 in the cell supernatant, monoclonal antibody specific to the C-terminus of Aβ42 (JRF/cAβ42/26) was coupled to the receptor beads and biotinylated antibody specific to the N-terminus of Aβ (JRF/AβN/25) was used to react with the donor beads. To quantify the amount of Aβtotal in the cell supernatant, monoclonal antibody specific to the N-terminus of Aβ (JRF/AβN/25) was coupled to the receptor beads and biotinylated antibody specific to the mid region of Aβ (biotinylated 4G8) was used to react with the donor beads.
(§4) To obtain the values reported in Table 12c, the data are calculated as percentage of the maximum amount of amyloid Beta 42 measured in the absence of the test compound. The sigmoidal dose response curves were analyzed using non-linear regression analysis with percentage of the control plotted against the log concentration of the compound. A 4-parameter equation was used to determine the IC50.

Aβtotal = experiment: Screening for γ-secretase-modulating activity, Method 2: Aβtotal Alphalisa in supernatant of SKNBE2 cells carrying APP 695 wild type (Table 12c); format: cell-based; conditions: Method 2, Table 12c, incubated overnight
Procedure: as §1, §2, §3, §4

`COc1cc(Nc2cccn3cc(C(O)C(F)(F)F)nc23)ccc1-n1cnc(C)c1` (stereo not drawn) [Compound 110] was tested. Which IC50 (Aβ42) did it give?
Its IC50 is 129 nM.

And the IC50 (Aβtotal)?
Its IC50 is greater than 10000 nM.

Which IC50 (Aβ42; Homo sapiens) does the source give for `CCC(=O)NCc1ccc(C)c(-c2cn3cccc(Nc4ccc(-n5cnc(C)c5)c(OC)c4)c3n2)c1` [Compound 111] here?
The IC50 was 65 nM.

And the IC50 (Aβtotal; Homo sapiens)?
Its IC50 is 5500 nM.

Which results are given for `COc1c(-c2ccc(F)cc2)nc2c(Nc3ccc(-n4cnc(C)c4)c(F)c3)cccn12` [Compound 112]?
IC50 (Aβ42): 107 nM; IC50 (Aβtotal): > 10000 nM

How did the IC50 (Aβ42; Homo sapiens) turn out when `COCCOCCOCC(=O)NCc1ccc(C)c(-c2cn3cccc(Nc4ccc(-n5cnc(C)c5)c(OC)c4)c3n2)c1` [Compound 114] was run?
The IC50 was 151 nM.

And the IC50 (Aβtotal; Homo sapiens)?
Its IC50 is 3630 nM.

Which IC50 (Aβ42; Homo sapiens) does the source give for `Cc1cn(-c2ccc(Nc3cccn4cc(CC5CCOCC5)nc34)cc2F)cn1` [Compound 115] here?
Its IC50 is 257 nM.

What about the IC50 (Aβtotal; Homo sapiens) of the same compound?
The IC50 was 8320 nM.

What does the source list for `CCC(=O)c1cn2cccc(Nc3ccc(-n4cnc(C)c4)c(OC)c3)c2n1` [Compound 117]?
IC50 (Aβ42; Homo sapiens): 331 nM; IC50 (Aβtotal; Homo sapiens): > 10000 nM

For `COc1cc(Nc2cccn3cc(C(C)(C)O)nc23)ccc1-n1cnc(C)c1` [Compound 121], which IC50 (Aβ42) is on record?
The IC50 was 1320 nM.

And the IC50 (Aβtotal)?
Its IC50 is greater than 10000 nM.

How did the IC50 (Aβ42) turn out when `COc1cc(Nc2cccn3cc(C(=O)N(C)C)nc23)ccc1-n1cnc(C)c1` [Compound 123] was run?
Its IC50 is 5370 nM.

What about the IC50 (Aβtotal) of the same compound?
Its IC50 is greater than 10000 nM.

With `COc1cc(Nc2cccn3c(CN(C)C)c(-c4ccccc4Cl)nc23)ccc1-n1cnc(C)n1` [Compound 126] as the compound, how does the IC50 (Aβ42) read?
Its IC50 is 52 nM.

What about the IC50 (Aβtotal) of the same compound?
Its IC50 is greater than 10000 nM.

Which IC50 (Aβ42) does the source give for `COc1cc(Nc2cccn3c(CN(C)C)c(-c4ccccc4)nc23)ccc1-n1cnc(C)n1` [Compound 128] here?
The IC50 was 62 nM.

What about the IC50 (Aβtotal) of the same compound?
The IC50 was greater than 10000 nM.

Which IC50 (Aβ42) does the source give for `COc1nc(Nc2cccn3c(C)c(-c4ccccc4Cl)nc23)ccc1-n1cnc(C)c1` [Compound 139] here?
The IC50 was 5 nM.

What about the IC50 (Aβtotal) of the same compound?
The IC50 was 4270 nM.

What does the source list for `COCc1c(-c2ccccc2Cl)nc2c(Nc3ccc(-n4cnc(C)c4)c(OC)n3)cccn12` [Compound 140]?
IC50 (Aβ42): 6 nM; IC50 (Aβtotal): 4070 nM

What does the source list for `COc1nc(Nc2cccn3c(OC)c(-c4ccc(F)cc4)nc23)ccc1-n1cnc(C)c1` [Compound 141]?
IC50 (Aβ42): 13 nM; IC50 (Aβtotal): > 10000 nM

What does the source list for `COc1nc(Nc2cc(F)cn3cc(CC(C)C)nc23)ccc1-n1cnc(C)c1` [Compound 142]?
IC50 (Aβ42): 31 nM; IC50 (Aβtotal): 6610 nM

Which results are given for `COc1nc(Nc2cccn3cc(C4CCOCC4)nc23)ccc1-n1cnc(C)c1` [Compound 143]?
IC50 (Aβ42): 60 nM; IC50 (Aβtotal): 3390 nM

What does the source list for `Cc1cn(-c2ccc(Nc3cc(F)cn4cc(-c5ccc(F)cc5C)nc34)cc2F)cn1` [Compound 148]?
IC50 (Aβ42): 43 nM; IC50 (Aβtotal): > 10000 nM

Which results are given for `Cc1cn(-c2ccc(Nc3cc(Cl)cn4cc(C5CCOCC5)nc34)cc2F)cn1` [Compound 150]?
IC50 (Aβ42): 200 nM; IC50 (Aβtotal): > 10000 nM

With `COc1cc(Nc2cc(C(F)(F)F)nn3cc(C4CCOCC4)nc23)ccc1-n1cnc(C)c1` [Compound 158] as the compound, how does the IC50 (Aβ42) read?
The IC50 was 71 nM.

What about the IC50 (Aβtotal) of the same compound?
The IC50 was 8910 nM.

How did the IC50 (Aβ42; Homo sapiens) turn out when `COc1cc(Nc2ccnn3cc(-c4cc(F)ccc4C)nc23)ccc1-n1cnc(C)c1` [Compound 159] was run?
The IC50 was 55 nM.

And the IC50 (Aβtotal; Homo sapiens)?
Its IC50 is 4790 nM.

Which IC50 (Aβ42) does the source give for `COc1cc(Nc2cc(C(C)C)nn3cc(C)nc23)ccc1-n1cnc(C)c1` [Compound 160] here?
Its IC50 is 87 nM.

And the IC50 (Aβtotal)?
The IC50 was greater than 10000 nM.

Which results are given for `COc1ccccc1-c1cc(Nc2ccc(-n3cnc(C)c3)c(OC)c2)c2nc(C)cn2n1` [Compound 161]?
IC50 (Aβ42): 132 nM; IC50 (Aβtotal): > 10000 nM

Which IC50 (Aβ42) does the source give for `COc1cc(Nc2cc(Cl)nn3cc(-c4cc(F)ccc4C)nc23)ccc1-n1cnc(C)n1` [Compound 162] here?
Its IC50 is 138 nM.

What about the IC50 (Aβtotal) of the same compound?
Its IC50 is greater than 10000 nM.

`COc1cc(Nc2cc(Cl)nn3cc(C)nc23)ccc1-n1cnc(C)c1` [Compound 165] was tested. Which IC50 (Aβ42) did it give?
Its IC50 is 178 nM.

And the IC50 (Aβtotal)?
The IC50 was greater than 10000 nM.

Which results are given for `Cc1cn(-c2ccc(Nc3ccnn4cc(-c5cc(F)ccc5C)nc34)cc2F)cn1` [Compound 166]?
IC50 (Aβ42): 251 nM; IC50 (Aβtotal): > 10000 nM

Which IC50 (Aβ42) does the source give for `Cc1cn(-c2ccc(Nc3cc(Cl)nn4cc(-c5cc(F)ccc5C)nc34)cc2F)cn1` [Compound 169] here?
The IC50 was 417 nM.

And the IC50 (Aβtotal)?
Its IC50 is 7940 nM.

Which results are given for `COc1cc(Nc2cc(C3CCOCC3)nn3cc(C)nc23)ccc1-n1cnc(C)c1` [Compound 170]?
IC50 (Aβ42): 447 nM; IC50 (Aβtotal): > 10000 nM

Which results are given for `C=C(C)c1cc(Nc2ccc(-n3cnc(C)c3)c(OC)n2)c2nc(-c3ccccc3Cl)cn2n1` [Compound 171]?
IC50 (Aβ42; Homo sapiens): 537 nM; IC50 (Aβtotal; Homo sapiens): 8320 nM

For `COc1cc(Nc2nccn3cc(-c4ccc(F)cc4)nc23)ccc1-n1cnc(C)n1` [Compound 178], which IC50 (Aβ42) is on record?
The IC50 was 380 nM.

What about the IC50 (Aβtotal) of the same compound?
Its IC50 is greater than 10000 nM.

Which results are given for `COc1nc(Nc2cccn3cc(CC(F)(F)F)nc23)ccc1-n1cnc(C)c1` [Compound 179]?
IC50 (Aβ42; Homo sapiens): 78 nM; IC50 (Aβtotal; Homo sapiens): > 10000 nM

`COc1nc(Nc2cccn3cc(CC(F)(F)F)nc23)ccc1-n1cnc(C)n1` [Compound 180] was tested. Which IC50 (Aβ42) did it give?
The IC50 was 562 nM.

And the IC50 (Aβtotal)?
The IC50 was 6250 nM.

Reference: patent publication US8546440B2, “Substituted bicyclic imidazole derivatives as gamma secretase modulators” (Janssen Pharmaceuticals, Inc., priority 2008, dated 2013)
